# Values of other authors, collected in patent US20030087395A1, “Cardiotrophin-like cytokine” (Human Genome Sciences, Inc., priority 1997, published 2003).
# B1: G-CSF: gp130 family ligand (Pleiotropic) (protein, UniProt P09919 31-207, looked up)
# Granulocyte …: TPLGPASSLPQSFLLKCLEQVRKIQGDGAALQEKLVSECATYKLCHPEELVLLGHSLGIPWAPLSSCPSQALQLAGCLSQLHSGLFLYQGLLQALEGISPELGPTLDTLQLDVADFATTIWQQMEELGMAPALQPTQGAMPAFASAFQRRAGGVLVASHLQSFLEVSYRVLRHLAQP
# B2: IL-11: gp130 family ligand (Pleiotropic) (protein, UniProt P20809 22-199, looked up)
# Interleukin-11: PGPPPGPPRVSPDPRAELDSTVLLTRSLLADTRQLAAQLRDKFPADGDHNLDSLPTLAMSAGALGALQLPGVLTRLRADLLSYLRHVQWLRRAGGSSLKTLEPELGTLQARLDRLLRRLQLLMSRLALPQPPPDPPAPPLAPPSSAWGGIRAAHAILGGLHLTLDWAVRGLLLLKTRL
# B3: IL-12: gp130 family ligand (Pleiotropic) (protein, UniProt P29459 23-219; P29460 23-328, looked up)
# Interleukin-12 subunit alpha: RNLPVATPDPGMFPCLHHSQNLLRAVSNMLQKARQTLEFYPCTSEEIDHEDITKDKTSTVEACLPLELTKNESCLNSRETSFITNGSCLASRKTSFMMALCLSSIYEDLKMYQVEFKTMNAKLLMDPKRQIFLDQNMLAVIDELMQALNFNSETVPQKSSLEEPDFYKTKIKLCILLHAFRIRAVTIDRVMSYLNAS
# Interleukin-12 subunit beta: IWELKKDVYVVELDWYPDAPGEMVVLTCDTPEEDGITWTLDQSSEVLGSGKTLTIQVKEFGDAGQYTCHKGGEVLSHSLLLLHKKEDGIWSTDILKDQKEPKNKTFLRCEAKNYSGRFTCWWLTTISTDLTFSVKSSRGSSDPQGVTCGAATLSAERVRGDNKEYEYSVECQEDSACPAAEESLPIEVMVDAVHKLKYENYTSSFFIRDIIKPDPPKNLQLKPLKNSRQVEVSWEYPDTWSTPHSYFSLTFCVQVQGKSKREKKDRVFTDKTSATVICRKNASISVRAQDRYYSSSWSEWASVPCS
# B4: OnM: gp130 family ligand (Pleiotropic) (protein, UniProt P13725 26-221, looked up)
# Oncostatin-M: AAIGSCSKEYRVLLGQLQKQTDLMQDTSRLLDPYIRIQGLDVPKLREHCRERPGAFPSEETLRGLGRRGFLQTLNATLGCVLHRLADLEQRLPKAQDLERSGLNIEDLEKLQMARPNILGLRNNIYCMAQLLDNSDTAEPTKAGRGASQPPTPTPASDAFQRKLEGCRFLHGYHRFMHSVGRVFSKWGESPNRSRR
# B5: CNTF: gp130 family ligand (Pleiotropic) (protein)
# chain: MAFTEHSPLTPHRRDLCSRSIWLARKIRSDLTALTESYVKHQGLNKNINLDSADGMPVASTDQWSELTEAERLQENLQAYRTFHVLLARLLEDQQVHFTPTEGDFHQAIHTLLLQVAAFAYQIEELMILLEYKIPRNEADGMPINVGDGGLFEKKLWGLKVLQELSQWTVRSIHDLRFISSHQTGIPARGSHYIANNKKM
# modifications: homo sapiens
# B6: IL-10: ligand of the IFN family in the Jaks-STATs table (protein, UniProt P22301 19-178, looked up)
# Interleukin-10: SPGQGTQSENSCTHFPGNLPNMLRDLRDAFSRVKTFFQMKDQLDNLLLKESLLEDFKGYLGCQALSEMIQFYLEEVMPQAENQDPDIKAHVNSLGENLKTLRLRLRRCHRFLPCENKSKAVEQVKNAFNKLQEKGIYKAMSEFDIFINYIEAYMTMKIRN
# Assays:
# GAS or ISRE = conditions: element bound; adapted from Schidler and Darnell review; cited from earlier work
# STATS = conditions: numbers of the STATs activated; adapted from Schidler and Darnell review; cited from earlier work
Molecule,GAS or ISRE (GAS or ISRE),STATS (STATS)
IL-6: gp130 family ligand (Pleiotropic),GAS,"1,3"
IL-9: g-C family ligand (lymphocytes),GAS,5
IL-13: g-C family ligand (lymphocyte),GAS,6
GM-CSF: gp140 family ligand (myeloid),GAS,5
GH: Growth hormone family ligand,–,5
IL-15: g-C family ligand,GAS,5
PDGF,–,"1,3"
IL-5: gp140 family ligand (myeloid),GAS,5
EGF: ligand of Receptor Tyrosine Kinases,GAS (IRF1),"1,3"
B1,–,"1,3"
B2,–,"1,3"
B3,–,"1,3"
B4,–,"1,3"
B5,–,"1,3"
B6,–,"1,3"
